Like-named read-outs stand apart in the source and are kept apart here.
Legend:
Solubility = format: physicochemical
histamine = settings: in vivo; cited from earlier work
central nervous system = test: Behavior-pharmacological studies, central nervous system depressing effect; parameters: species or system mouse (dd-strain); settings: mouse, in vivo
Source text: Effects on central nervous system were studied as follows: […]

blood pressure of SHR [1] = test: Antihypertensive effect by repeated administration, SHR; format: in vivo, rat (spontaneously hypertensive rats
Procedure: The effect was determined through a direct cannulation by using male SHRs aged 25 to 30 weeks and weighing about 300 g. […] Blood pressures were measured twice a day, just before and 4 hours after the administration with blood pressure recorder 8002 made by W+W Electronic.

rat = settings: oral
rats [2] = test: Sub-acute toxicity: histopathological examination; format: in vivo, rat (SD (SPF)); settings: for Adrenal Hypertrophy: 5 rats
Source text: Rats were sacrificed under anesthesia with ether.
Five samples were randomly selected from each group, and paraffin-sectionedpreparations of the organs were made by a routine method. The preparations were stained with hematoxyline-eosin stain and Luxol-fast blue (central nervous system only) and examined histopathologically.

rats [3] = tested on: rats
Procedure: Urinanalysis was conducted on the last day of the repeated administration as to pH, protein content, glucose content, ketone body content and occult blood by testing paper methods. (Labstix, Miles-Sankyo Co., Ltd.)

blood pressure of SHR [4] = test: Antihypertensive effect by single oral administration, SHR, modified tail-cuff method; format: in vivo, rat (spontaneously hypertensive rats
Source text: The effect was examined through both direct and modified tail-cuff methods using male SHRs aged 25 to 30 weeks and weighing about 300 g.

## COC(=O)[C@H]1[C@H]2C[C@@H]3c4[nH]c5cc(OC)ccc5c4CCN3C[C@H]2C[C@@H](O)[C@@H]1OC [MR, methylreserpate]
Solubility
  solubility in chloroform: easily soluble
  solubility in ethanol: easily soluble
  solubility in methanol: easily soluble
  solubility in water: hardly soluble
histamine
  histamine: increse of histamine
Central nervous system
  central nervous system depressing effect compared with RSP: weaker than that of RSP
Blood pressure of SHR [1]; oral, once a day over 2 weeks
  blood pressure 24 hours after administration: had returned almost to the original level
Blood pressure of SHR [1]; rat, in vivo
  disappearance of effect compared with RSP: disappears more rapidly than that of RSP
Blood pressure of SHR [1]; repeated administration over 2 weeks
  tolerance: hardly giving tolerance
Blood pressure of SHR [1]; single and repeated administration to SHRs
  long lasting effect: no long lasting effect
rat
  LD50 as multiple of clinical dosage of RCN: about 24,000 times
Rats [2]; 25.0 mg/kg
  Adrenal Hypertrophy: - - - + -
Rats [2]; 50.0 mg/kg
  Adrenal Hypertrophy: + + ++ + +
Rats [2]; 100.0 mg/kg
  Adrenal Hypertrophy: + + + + +
Rats [2]; 200.0 mg/kg, 5 dead rats
  Lung Alveolar wall Congestion: + ++ ++ ++ +++
  Lung Alveolar wall Pneumonia: ++ ++ ++ + +
  Lung Alveolus Pneumonia: - - - - -
  Lung Bronchus Bronchitis: - - - - -
  Pancreas: - - - - -
  Prostate: - - - - /
  Salivary Mucous gl.: - - - - -
  Salivary Serous gl. Atrophy: - - - - -
  Spleen Atrophy: - - - - -
  Spleen Congestion: ++ ++ ++ + +
  Spleen Haemosiderosis: + + + + +
  Stomach: - - - - -
  Testis: - - - - -
  Thyroid: / - - - /
  Thyroid Atrophy: +++ / +++ / /
  Urine bladder: - - - - -
Rats [2]; rat, in vivo
  Bone marrow Hypoplasia: - - - - -
  Central nerve: - - - - -
  Heart Endocardium: - - - - -
  Heart Epicardium: - - - - -
  Heart Myocardium Focal collapse: + - - + -
  Heart finding: focal collapse of heart muscles
  Hypophysis: - - - - -
  Intestine: - - - - -
  Kidney: - - - - -
  Liver Glisson's capsule Cell inf.: - + + + +
  Liver Kupffer cell Swelling: - - + + -
  Liver cell Degeneration: - - - - -
  Liver cell cord Cell inf.: - - + - -
  Liver cell cord Congestion: - - - - -
  Liver: Glisson's capsule or liver cell cords; Kupffer cells: lymphocytic cell infiltration in Glisson's capsule or liver cell cords, and swelling of Kupffer cells
  Lung Alveolar wall Congestion: - - - - -
  Lung Alveolar wall Pneumonia: - - - - -
  Lung Alveolus Pneumonia: - + - - -
  Lung Bronchus Bronchitis: - - - - +
  Lymph node: - - - - -
  Pancreas: - - - - -
  Prostate: - - - - -
  Salivary Mucous gl.: - - - - -
  Salivary Serous gl. Atrophy: - - - - -
  Spleen Atrophy: - - - - -
  Spleen Congestion: - - - - -
  Spleen Haemosiderosis: + + + + +
  Stomach: - - - - -
  Testis: - - - - -
  Thymus Atrophy: - - - - -
  Thyroid: - - - - -
  Urine bladder: - - - - -
  kidney histopathology: no pathological change
  other organs: No other pathological change
  pathological change of adrenal: reversible hypertrophy of cortex
  stomach mucous: no pathological change of stomach mucous
Rats [3]; 25.0 mg/kg
  urine Glucose -: 10 Number of Rats
  urine Ketone Body +: 0 Number of Rats
  urine Ketone Body -: 10 Number of Rats
  urine Occult Blood -: 10 Number of Rats
  urine Protein +: 6 Number of Rats
  urine Protein ++: 4 Number of Rats
  urine Protein +++: 0 Number of Rats
  urine Protein -: 0 Number of Rats
  urine pH 6: 2 Number of Rats
  urine pH 7: 7 Number of Rats
  urine pH 8: 1 Number of Rats
Rats [3]; 50.0 mg/kg
  urine Glucose -: 10 Number of Rats
  urine Ketone Body +: 1 Number of Rats
  urine Ketone Body -: 9 Number of Rats
  urine Occult Blood -: 10 Number of Rats
  urine Protein +: 6 Number of Rats
  urine Protein ++: 4 Number of Rats
  urine Protein +++: 0 Number of Rats
  urine Protein -: 0 Number of Rats
  urine pH 6: 1 Number of Rats
  urine pH 7: 7 Number of Rats
  urine pH 8: 2 Number of Rats
Rats [3]; 100.0 mg/kg
  urine Glucose -: 10 Number of Rats
  urine Ketone Body +: 1 Number of Rats
  urine Ketone Body -: 9 Number of Rats
  urine Occult Blood -: 10 Number of Rats
  urine Protein +: 3 Number of Rats
  urine Protein ++: 3 Number of Rats
  urine Protein +++: 3 Number of Rats
  urine Protein -: 1 Number of Rats
  urine pH 6: 2 Number of Rats
  urine pH 7: 7 Number of Rats
  urine pH 8: 1 Number of Rats
Rats [3]; higher doses
  increase in urine volume, interpretation: seems to be a diuretic effect
Rats [3]; last day of repeated administration
  urinanalysis overall: do not indicate abnormal feature any worth special mention
Rats [3]; rat, in vivo
  urine Glucose -: 10 Number of Rats
  urine Ketone Body +: 0 Number of Rats
  urine Ketone Body -: 10 Number of Rats
  urine Occult Blood -: 10 Number of Rats
  urine Protein +: 5 Number of Rats
  urine Protein ++: 3 Number of Rats
  urine Protein +++: 2 Number of Rats
  urine Protein -: 0 Number of Rats
Rats [3]; rat, in vivo, pH 6
  urine pH 6: 3 Number of Rats
Rats [3]; rat, in vivo, pH 7
  urine pH 7: 4 Number of Rats
Rats [3]; rat, in vivo, pH 8
  urine pH 8: 3 Number of Rats
Blood pressure of SHR [4]; 6.25 mg/kg oral
  maximum rate of blood pressure decrease: 31.7%
  time to reach original blood pressure level: 48 h
Blood pressure of SHR [4]; 25 mg/kg oral
  time to reach original blood pressure level: 72 h
Blood pressure of SHR [4]; 25.0 mg/kg oral
  maximum rate of blood pressure decrease: 42.5%
Blood pressure of SHR [4]; after plateau, 6.25, 12.5 and 25 mg/kg oral
  time from which blood pressure gradually returned: about 12 hours

Source: patent US4238491A (priority 1977, dated 1980)
